Laboratory results published in patent publication US8889677B2, “Substituted triazoles useful as mGlu5 receptor modulators” (Boehringer Ingellheim International GmbH, priority 2012, dated 2014).
pEC50: −log10 of the molar value.

target: T1, human recombinant mGluR5 (Homo sapiens, UniProt P41594); assay: positive modulation of mGluR5, calcium based FLIPR assay in HEK 293 cells; conditions: HEK 293 cell line expressing human recombinant mGluR5; EC50 of the modulation of the glutamate response (glutamate approx. 5% basal stimulation); peak height of Ca release fluorescence signal
T1 construct: expressed in transfected cells; host or cells: HEK 293 cell line cultured with tetracycline, hygromycin and geneticin; tetracycline removed 3-7 days before the assay
Outline: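 Potentiation EC50 derived by nonlinear fit of peak calcium fluorescence after a near-5%-maximal glutamate challenge, following 5 min compound exposure (intrinsic activity also recorded). Dye-loaded recombinant human mGluR5 HEK 293 cells in Ringer solution pH 7.4, 1% DMSO; plate controls were vehicle (100%) and 10 μM CDPPB (200%).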

T1 sequence (P41594 21-1212): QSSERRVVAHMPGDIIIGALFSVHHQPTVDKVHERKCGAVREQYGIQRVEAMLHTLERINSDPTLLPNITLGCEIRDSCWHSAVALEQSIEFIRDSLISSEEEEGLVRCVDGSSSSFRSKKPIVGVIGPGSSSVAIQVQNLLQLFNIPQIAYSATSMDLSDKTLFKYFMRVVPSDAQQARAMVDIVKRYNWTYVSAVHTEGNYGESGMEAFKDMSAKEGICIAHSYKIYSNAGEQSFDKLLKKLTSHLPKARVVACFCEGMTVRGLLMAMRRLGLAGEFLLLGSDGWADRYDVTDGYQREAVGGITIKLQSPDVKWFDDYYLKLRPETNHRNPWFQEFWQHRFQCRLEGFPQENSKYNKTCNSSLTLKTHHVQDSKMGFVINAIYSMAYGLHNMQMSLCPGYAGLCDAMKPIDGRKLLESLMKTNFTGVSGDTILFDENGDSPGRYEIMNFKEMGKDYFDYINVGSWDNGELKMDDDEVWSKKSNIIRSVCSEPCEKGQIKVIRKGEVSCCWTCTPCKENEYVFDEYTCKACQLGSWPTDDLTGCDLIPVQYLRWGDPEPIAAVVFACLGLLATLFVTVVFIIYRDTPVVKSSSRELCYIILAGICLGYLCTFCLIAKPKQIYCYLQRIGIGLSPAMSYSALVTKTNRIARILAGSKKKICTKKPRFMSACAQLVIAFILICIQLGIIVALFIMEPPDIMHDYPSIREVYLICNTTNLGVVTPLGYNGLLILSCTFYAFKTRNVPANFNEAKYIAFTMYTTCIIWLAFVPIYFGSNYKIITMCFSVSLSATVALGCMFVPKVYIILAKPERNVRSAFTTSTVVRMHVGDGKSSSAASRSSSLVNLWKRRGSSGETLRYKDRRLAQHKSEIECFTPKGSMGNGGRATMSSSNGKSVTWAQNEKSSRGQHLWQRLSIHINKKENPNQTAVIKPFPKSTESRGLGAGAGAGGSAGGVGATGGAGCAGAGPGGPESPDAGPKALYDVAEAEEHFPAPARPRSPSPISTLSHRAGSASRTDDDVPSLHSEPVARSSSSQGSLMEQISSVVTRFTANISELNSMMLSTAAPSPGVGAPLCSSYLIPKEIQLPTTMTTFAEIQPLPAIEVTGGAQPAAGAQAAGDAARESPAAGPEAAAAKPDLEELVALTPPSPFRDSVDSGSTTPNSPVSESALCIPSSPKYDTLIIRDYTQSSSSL

Row | pEC50 | SMILES
1 | 6.78 | CN(C)c1cc(N2CCN(C(=O)Cn3nc(-c4ccc(F)cc4)nc3-c3ccc(F)cc3)CC2)ncn1 [Example 07.06.01., 2-(3,5-Bis-(4-fluoro-phenyl)-(1,2,4)triazol-1-yl)-1-(4-(6-dimethylamino-pyrimidin-4-yl)-piperazin-1-yl)-ethanone]
2 | 7.15 | CCOc1cc(N2CCN(C(=O)Cn3nc(-c4ccc(F)cc4)nc3-c3ccc(F)cc3)CC2)ncn1 [Example 07.06.02.]
3 | 7.00 | COCCOc1cc(N2CCN(C(=O)Cn3nc(-c4ccc(F)cc4)nc3-c3ccc(F)cc3)CC2)ncn1 [Example 07.06.03.]
4 | 6.82 | CC(C)Oc1cc(N2CCN(C(=O)Cn3nc(-c4ccc(F)cc4)nc3-c3ccc(F)cc3)CC2)ncn1 [Example 07.06.04.]
5 | 6.78 | O=C(Cn1nc(-c2ccc(F)cc2)nc1-c1ccc(F)cc1)N1CCN(c2cc(OCCO)ncn2)CC1 [Example 07.07.01., 2-(3,5-bis-(4-fluoro-phenyl)-(1,2,4)triazol-1-yl)-1-(4-(6-(2-hydroxy-ethoxy)-pyrimidin-4-yl)-piperazin-1-yl)-ethanone]
6 | 6.01 | CN(C)CCOc1cc(N2CCN(C(=O)Cn3nc(-c4ccc(F)cc4)nc3-c3ccc(F)cc3)CC2)ncn1 [Example 07.07.02.]
7 | 6.70 | CN(CC1CCOC1)c1cc(N2CCN(C(=O)Cn3nc(-c4ccc(F)cc4)nc3-c3ccc(F)cc3)CC2)ncn1 (stereo not drawn) [Example 07.08.01., 2-(3,5-bis-(4-fluoro-phenyl)-(1,2,4)triazol-1-yl)-1-(4-(6-(methyl-(tetrahydro-furan-3-ylmethyl)-amino)-pyrimidin-4-yl)-piperazin-1-yl)-ethanone]
8 | 6.55 | O=C(Cn1nc(-c2ccc(F)cc2)nc1-c1ccc(F)cc1)N1CCN(c2cc(N3CCC(O)CC3)ncn2)CC1 [Example 07.08.02.]
9 | 6.62 | COCCN(C)c1cc(N2CCN(C(=O)Cn3nc(-c4ccc(F)cc4)nc3-c3ccc(F)cc3)CC2)ncn1 [Example 07.08.03.]
10 | 6.37 | O=C(Cn1nc(-c2ccc(F)cc2)nc1-c1ccc(F)cc1)N1CCN(c2cc(NC3CC3)ncn2)CC1 [Example 07.08.04.]
11 | 6.29 | O=C(Cn1nc(-c2ccc(F)cc2)nc1-c1ccc(F)cc1)N1CCN(c2cc(NC3CCOCC3)ncn2)CC1 [Example 07.08.05.]
12 | 6.59 | COC1CCN(c2cc(N3CCN(C(=O)Cn4nc(-c5ccc(F)cc5)nc4-c4ccc(F)cc4)CC3)ncn2)CC1 [Example 07.08.06.]
13 | 6.82 | CC(C)Nc1cc(N2CCN(C(=O)Cn3nc(-c4ccc(F)cc4)nc3-c3ccc(F)cc3)CC2)ncn1 [Example 07.08.07.]
14 | 6.44 | CC(C)CCN(C)c1cc(N2CCN(C(=O)Cn3nc(-c4ccc(F)cc4)nc3-c3ccc(F)cc3)CC2)ncn1 [Example 07.08.08.]
15 | 6.48 | CN(CCO)c1cc(N2CCN(C(=O)Cn3nc(-c4ccc(F)cc4)nc3-c3ccc(F)cc3)CC2)ncn1 [Example 07.08.09.]
16 | 5.99 | COCCN1CCN(c2cc(N3CCN(C(=O)Cn4nc(-c5ccc(F)cc5)nc4-c4ccc(F)cc4)CC3)ncn2)CC1 [Example 07.08.10.]
17 | 6.53 | COCCCN(C)c1cc(N2CCN(C(=O)Cn3nc(-c4ccc(F)cc4)nc3-c3ccc(F)cc3)CC2)ncn1 [Example 07.08.11.]
18 | 6.68 | CCNc1cc(N2CCN(C(=O)Cn3nc(-c4ccc(F)cc4)nc3-c3ccc(F)cc3)CC2)ncn1 [Example 07.08.12.]
19 | 6.46 | O=C(Cn1nc(-c2ccc(F)cc2)nc1-c1ccc(F)cc1)N1CCN(c2cc(N3CCCC3)ncn2)CC1 [Example 07.08.13.]

Row | pEC50 | SMILES
20 | 6.09 | CN1CCN(c2cc(N3CCN(C(=O)Cn4nc(-c5ccc(F)cc5)nc4-c4ccc(F)cc4)CC3)ncn2)CC1=O [Example 07.08.14.]
21 | 6.69 | CCN(CC)c1cc(N2CCN(C(=O)Cn3nc(-c4ccc(F)cc4)nc3-c3ccc(F)cc3)CC2)ncn1 [Example 07.08.15.]
22 | 5.94 | CN1CCC(Nc2cc(N3CCN(C(=O)Cn4nc(-c5ccc(F)cc5)nc4-c4ccc(F)cc4)CC3)ncn2)CC1 [Example 07.08.16.]
23 | 6.54 | O=C(Cn1nc(-c2ccc(F)cc2)nc1-c1ccc(F)cc1)N1CCN(c2cc(NCc3ccccn3)ncn2)CC1 [Example 07.08.17.]
24 | 6.34 | CN(c1cc(N2CCN(C(=O)Cn3nc(-c4ccc(F)cc4)nc3-c3ccc(F)cc3)CC2)ncn1)C1CC1 [Example 07.08.18.]
25 | 6.68 | CCN(C)c1cc(N2CCN(C(=O)Cn3nc(-c4ccc(F)cc4)nc3-c3ccc(F)cc3)CC2)ncn1 [Example 07.08.19.]
26 | 6.81 | O=C(Cn1nc(-c2ccc(F)cc2)nc1-c1ccc(F)cc1)N1CCN(c2cc(NC3CCC3)ncn2)CC1 [Example 07.08.20.]
27 | 6.70 | COCCNc1cc(N2CCN(C(=O)Cn3nc(-c4ccc(F)cc4)nc3-c3ccc(F)cc3)CC2)ncn1 [Example 07.08.21.]
28 | 6.55 | O=C(Cn1nc(-c2ccc(F)cc2)nc1-c1ccc(F)cc1)N1CCN(c2cc(N3CCC3)ncn2)CC1 [Example 07.08.22.]
29 | 5.80 | CN1CCN(c2cc(N3CCN(C(=O)Cn4nc(-c5ccc(F)cc5)nc4-c4ccc(F)cc4)CC3)ncn2)CC1 [Example 07.08.23.]
30 | 6.72 | CNc1cc(N2CCN(C(=O)Cn3nc(-c4ccc(F)cc4)nc3-c3ccc(F)cc3)CC2)ncn1 [Example 07.08.24.]
31 | 7.23 | O=C(Cn1nc(-c2ccc(F)cc2)nc1-c1ccc(F)cc1)N1CCN(c2cc(OCC3CCCO3)ncn2)CC1 (stereo not drawn) [Example 07.09.02.]
32 | 7.24 | O=C(Cn1nc(-c2ccc(F)cc2)nc1-c1ccc(F)cc1)N1CCN(c2cc(OC[C@H]3CCCO3)ncn2)CC1 [Example 07.09.03.]
33 | 7.19 | O=C(Cn1nc(-c2ccc(F)cc2)nc1-c1ccc(F)cc1)N1CCN(c2cc(OCCOCCO)ncn2)CC1 [Example 07.09.04.]
34 | 7.39 | O=C(Cn1nc(-c2ccc(F)cc2)nc1-c1ccc(F)cc1)N1CCN(c2cc(OCC3CCOC3)ncn2)CC1 (stereo not drawn) [Example 07.09.05.]
35 | 6.89 | COCCOCCOc1cc(N2CCN(C(=O)Cn3nc(-c4ccc(F)cc4)nc3-c3ccc(F)cc3)CC2)ncn1 [Example 07.09.06.]
36 | 6.96 | O=C(Cn1nc(-c2ccc(F)cc2)nc1-c1ccc(F)cc1)N1CCN(c2cc(OCCN3CCOCC3)ncn2)CC1 [Example 07.09.07.]
37 | 7.13 | CC(=O)N1CCC(Oc2cc(N3CCN(C(=O)Cn4nc(-c5ccc(F)cc5)nc4-c4ccc(F)cc4)CC3)ncn2)CC1 [Example 07.09.08.]
38 | 6.96 | O=C(Cn1nc(-c2ccc(F)cc2)nc1-c1ccc(F)cc1)N1CCN(c2cc(OC3CCCOC3)ncn2)CC1 (stereo not drawn) [Example 07.09.09.]

Row | pEC50 | SMILES
39 | 7.28 | O=C(Cn1nc(-c2ccc(F)cc2)nc1-c1ccc(F)cc1)N1CCN(c2cc(OCC3CCCCO3)ncn2)CC1 (stereo not drawn) [Example 07.09.10.]
40 | 7.25 | O=C(Cn1nc(-c2ccc(F)cc2)nc1-c1ccc(F)cc1)N1CCN(c2cc(O[C@H]3CCOC3)ncn2)CC1 [Example 07.09.11.]
41 | 6.77 | O=C1CCCN1CCOc1cc(N2CCN(C(=O)Cn3nc(-c4ccc(F)cc4)nc3-c3ccc(F)cc3)CC2)ncn1 [Example 07.09.12.]
42 | 7.33 | O=C(Cn1nc(-c2ccc(F)cc2)nc1-c1ccc(F)cc1)N1CCN(c2cc(OCc3ccccn3)ncn2)CC1 [Example 07.09.13.]
43 | 7.42 | COC[C@@H](C)Oc1cc(N2CCN(C(=O)Cn3nc(-c4ccc(F)cc4)nc3-c3ccc(F)cc3)CC2)ncn1 [Example 07.09.14.]
44 | 6.65 | O=C(Cn1nc(-c2ccc(F)cc2)nc1-c1ccc(F)cc1)N1CCN(c2cc(O[C@H]3COC[C@H]3O)ncn2)CC1 [Example 07.09.15.]
45 | 6.76 | O=C(Cn1nc(-c2ccc(F)cc2)nc1-c1ccc(F)cc1)N1CCN(c2cc(OCCOCCOCCO)ncn2)CC1 [Example 07.09.16.]
46 | 6.97 | O=C(Cn1nc(-c2ccc(F)cc2)nc1-c1ccc(F)cc1)N1CCN(c2cc(OCCn3ccnc3)ncn2)CC1 [Example 07.09.17.]
47 | 6.99 | O=C(Cn1nc(-c2ccc(F)cc2)nc1-c1ccc(F)cc1)N1CCN(c2cc(OCCN3CCNC3=O)ncn2)CC1 [Example 07.09.18.]
48 | 6.70 | O=C(Cn1nc(-c2ccc(F)cc2)nc1-c1ccc(F)cc1)N1CCN(c2cc(OCCCN3CCOCC3)ncn2)CC1 [Example 07.09.19.]
49 | 7.19 | O=C(Cn1nc(-c2ccc(F)cc2)nc1-c1ccc(F)cc1)N1CCN(c2cc(OCCCO)ncn2)CC1 [Example 07.09.20.]
50 | 7.10 | O=C(Cn1nc(-c2ccc(F)cc2)nc1-c1ccc(F)cc1)N1CCN(c2cc(OC3CCOCC3)ncn2)CC1 [Example 07.09.21.]
51 | 7.41 | O=C(Cn1nc(-c2ccc(F)cc2)nc1-c1ccc(F)cc1)N1CCN(c2cc(OCc3cccnc3)ncn2)CC1 [Example 07.09.22.]
52 | 7.21 | O=C(Cn1nc(-c2ccc(F)cc2)nc1-c1ccc(F)cc1)N1CCN(c2cc(OC[C@@H]3CCCO3)ncn2)CC1 [Example 07.09.23.]
53 | 7.00 | O=C1CC(COc2cc(N3CCN(C(=O)Cn4nc(-c5ccc(F)cc5)nc4-c4ccc(F)cc4)CC3)ncn2)CN1 (stereo not drawn) [Example 07.09.24.]
54 | 6.52 | CN(CCO)CCOc1cc(N2CCN(C(=O)Cn3nc(-c4ccc(F)cc4)nc3-c3ccc(F)cc3)CC2)ncn1 [Example 07.09.25.]
55 | 6.60 | CN1CCN(CCCOc2cc(N3CCN(C(=O)Cn4nc(-c5ccc(F)cc5)nc4-c4ccc(F)cc4)CC3)ncn2)CC1 [Example 07.09.26.]
56 | 7.07 | O=C1CCCN1CCCOc1cc(N2CCN(C(=O)Cn3nc(-c4ccc(F)cc4)nc3-c3ccc(F)cc3)CC2)ncn1 [Example 07.09.27.]

Row | SMILES | pEC50
57 | COCCCCOc1cc(N2CCN(C(=O)Cn3nc(-c4ccc(F)cc4)nc3-c3ccc(F)cc3)CC2)ncn1 [Example 07.09.01., 2-(3,5-Bis-(4-fluoro-phenyl)-(1,2,4)triazol-1-yl]-1-(4-(6-(4-methoxy-butoxy)-pyrimidin-4-yl)-piperazin-1-yl)-ethanone] | 7.17
